Laboratory results taken from US10000555B2, “Monomethylvaline compounds having phenylalanine side-chain modification at the C-terminus” (Seattle Genetics, Inc., priority 2005, dated 2018).

Tests used:
Assay type in all cases: cell-based
Caki-1 = experiment: In vitro cytotoxicity of h1F6-MC-val-cit-PAB-MMAZ conjugates on CD70+ cell line Caki-1; conditions: Caki-1 renal cell carcinoma, approximately 4 drugs per antibody
Method: (§1) The cytotoxic activity of MMAZ and antibody-drug conjugates is evaluated on the CD70+ positive cell lines, for example, Caki-1, renal cell carcinoma; L428, Hodgkin's disease; U251, glioblastoma. To evaluate the cytotoxicity of compounds, cells can be seeded at approximately 5-10,000 per well in 150 μl of culture medium, then treated with graded doses of compounds in quadruplicates at the initiation of assay. Cytotoxicity assays are usually carried out for 96 hours after addition of test compounds. Fifty μl of resazurin dye may be added to each well during the last 4 to 6 hours of the incubation to assess viable cells at the end of culture. Dye reduction can be determined by fluorescence spectrometry using the excitation and emission wavelengths of 535 nm and 590 nm, respectively. For analysis, the extent of resazurin reduction by the treated cells can be compared to that of the untreated control cells.
(§2) To evaluate the cytotoxicity of conjugates, cells are seeded at approximately 5-10,000 per well in 150 μl of culture medium and then treated with graded doses of conjugates in quadruplicates at the initiation of assay. Cytotoxicity assays are carried out for 96 hours after addition of test compounds. Fifty μl of the resazurin dye is added to each well during the last 4 to 6 hours of the incubation to assess viable cells at the end of culture. Dye reduction is determined by fluorescence spectrometry using the excitation and emission wavelengths of 535 nm and 590 nm, respectively. For analysis, the extent of resazurin reduction by the treated cells is compared to that of the untreated control cells.

L428 = experiment: In vitro cytotoxicity of h1F6-MC-val-cit-PAB-MMAZ conjugates on CD70+ cell line L428; conditions: for IC50 (ng/mL) of h1F6-MC-val-cit-PAB-MMAZ conjugates on CD70+ cell lines, L428: L428 Hodgkin's disease, approximately 4 drugs per antibody
Method: as §1, §2

U251 = experiment: In vitro cytotoxicity of h1F6-MC-val-cit-PAB-MMAZ conjugates on CD70+ cell line U251; conditions: U251 glioblastoma, approximately 4 drugs per antibody
Method: as §1, §2

Substance	IC50 (ng/mL) of h1F6-MC-val-cit-PAB-MMAZ conjugates on CD70+ cell lines, Caki-1 (Caki-1)	Maximum inhibition, L428 (L428; @ 141 ng/ml)	IC50 (ng/mL) of h1F6-MC-val-cit-PAB-MMAZ conjugates on CD70+ cell lines, U251 (U251)	Maximum inhibition, L428 (L428; @ 100 ng/ml)	IC50 (ng/mL) of h1F6-MC-val-cit-PAB-MMAZ conjugates on CD70+ cell lines, L428 (L428)	Maximum inhibition, L428 (L428; @ 1000 ng/ml)
Maleimidocaproyl-Val-Cit-PAB-MeVal-Val-Dil-Dap-Glu(OtBu)-OH [SP3-l]	51 ng/mL	Maximum inhibition = 12% @ 141 ng/ml	43 ng/mL	–	–	–
Maleimidocaproyl-Val-Cit-PAB-MeVal-Val-Dil-Dap-p-Amino-Phe-OH [SP3-e]	No effect	–	No effect	Maximum inhibition = 10% @ 100 ng/ml	–	–
Maleimidocaproyl-Val-Cit-PAB-MeVal-Val-Dil-Dap-3-(3-pyridyl)-L-Ala-OH [SP3-h]	16 ng/mL	–	16 ng/mL	–	12 ng/mL	–
Maleimidocaproyl-Val-Cit-PAB-MeVal-Val-Dil-Dap-Met-OH [SP3-j]	18 ng/mL	–	23 ng/mL	–	43 ng/mL	–
Maleimidocaproyl-Val-Cit-PAB-MeVal-Val-Dil-Dap-Tic-OH [SP3-c]	28 ng/mL	–	20 ng/mL	–	–	Maximum inhibition = 12% @ 1000 ng/ml
Maleimidocaproyl-Val-Cit-PAS-MeVal-Val-Dil-Dap-Me-Phe-OH [SP3-b]	6 ng/mL	–	8 ng/mL	–	6 ng/mL	–
Maleimidocaproyl-Val-Cit-PAB-MeVal-Val-Dil-Dap-L-β-homophe-OH [SP3-d]	9 ng/mL	–	11 ng/mL	–	33 ng/mL	–
Maleimidocaproyl-Val-Cit-PAB-MeVal-Val-Dil-Dap-2-Chloro-Phe-OH [SP3-a]	4.4 ng/mL	–	8 ng/mL	–	8 ng/mL	–
Maleimidocaproyl-Val-Cit-PAB-MeVal-Val-Dil-Dap-Trp(Boc)-OH [SP3-k]	6 ng/mL	–	7.5 ng/mL	–	11 ng/mL	–
